Measurements published in patent US5424308A, “Condensed pyrazole 3-oxo-propanenitrile derivatives” (Farmitalia Carlo Erba S.r.l., priority 1988, dated 1995).

What was measured:
TU-5 tumor cells = experiment: Macrophage cytotoxic activity towards TU-5 tumor cells (peritoneal macrophages of i.p. treated mice, MTT); type: cell-based; conditions: Effector:Target 5:1; 10 mg/kg/i.p.; 7 days before cell collection; 48 hours incubation
Experimental: The experimental procedure to evaluate this activity is as follows: groups of 4 mice are treated i.p. with the tested compounds and then, seven days later, peritoneal cells are collected and plated for 2 hours at 37° C. After this period the walls are washed to eliminate the non adherent cells, tumor target cells are then added and the incubation prolonged for 48 hours. At the end of this period the target cells viability is evaluated by the MTT colorimetric method (Abstracts of VIII European Immunology Meeting, Zagreb, 1987, pag 94 n°2105) based on the optical density (OD) evaluation at 570 nm.
Percent specific cytotoxicity (%C) is calculated as % inhibition of TU-5 tumor cells (Immunology, 1984, 166, 251) growth using the following formula: [formula]
The following Table I summarizes the immunostimulating activity data of some representative compounds of the invention, obtained according to hereabove experimental procedure, towards TU-5 tumor cells.

Pseudomonas aeruginosa = Pseudomonas aeruginosa infection in Cyclophosphamide immunosuppressed mice; type: in vivo; conditions: for % survival: 10 mg/kg/i.p., 8 LD50 intravenously, 10 days after bacterial challenge; for effectiveness against Pseudomonas aeruginosa infection: Cyclophosphamide immunosuppressed mice, in words
Experimental: The experimental procedure to evaluate this activity is as follows: mice are immunosuppressed 4 days before the bacterial challenge by a single dose of 200 mg/kg of Cyclophosphamide given intraperitoneally. Tested compounds are administered i.p. on days +1 and +3 relative to Cyclophosphamide administration. Clinically isolated Pseudomonas aeruginosa is administered intravenously in amount of 8 LD50. Host resistance to infection is estimated by the number of mice surviving 10 days after the bacterial challenge.

Compound | Macrophage cytotoxic activity (% inhibition of TU-5 growth) (TU-5 tumor cells) [%] | % survival (Pseudomonas aeruginosa) [%] | effectiveness against Pseudomonas aeruginosa infection (Pseudomonas aeruginosa)
N#CC(C(=O)Nc1cccc(Cl)c1)C(=O)c1nn(-c2ccccc2)c2c1Cc1ccccc1-2 (stereo not drawn) [FCE 25651, N-(3-chloro-phenyl)-2-cyano-3-(1,4-dihydro-1-phenyl-indeno[1,2-c]pyrazol-3-yl)-3-oxo-propanamide] | 79 | 90 | strongly effective
N#CC(C(=O)Nc1ccccc1)C(=O)c1nn(-c2ccccc2)c2c1Cc1ccccc1-2 (stereo not drawn) [FCE 25276, 2-cyano-3-(1,4-dihydro-1-phenyl-indeno[1,2-c]pyrazol-3-yl) -3-oxo-N-phenyl-propanamide] | 93 | 90 | strongly effective
N#CC(C(=O)Nc1ccccc1)C(=O)c1nn(-c2ccccc2)c2c1sc1ccccc12 (stereo not drawn) [FCE 26047, 2-cyano-3-oxo-3-(1-phenyl-1H-benzothieno[3,2-c]pyrazol-3-yl)-N-phenyl-propanamide] | 82 | 70 | strongly effective
N#CC(C(=O)Nc1ccc(F)cc1)C(=O)c1nn(-c2ccccc2)c2c1Cc1ccccc1-2 (stereo not drawn) [FCE 25648, 2-cyano-N-(4-fluoro-phenyl)-3-(1,4-dihydro-1-phenyl-indeno[1,2-c]pyrazol-3-yl)-3-oxo-propanamide] | 77 | 90 | strongly effective
